Laboratory results: ChEMBL document CHEMBL5726860, “Phthalazinones and isoquinolinones as rock inhibitors” (2018)

What follows are compounds tested against Rho-associated protein kinase 1 (Homo sapiens, UniProt Q13464) (assay: (§1) In Vitro Assay: The effectiveness of compounds of the present invention as ROCK inhibitors can be determined in a 30 μL assay containing 20 mM HEPES, pH 7.5, 20 mM MgCl2, 0.015% Brij-35, 4 mM DTT, 5 μM ATP and 1.5 μM peptide substrate (FITC-AHA-[…]-OH). Compounds were dissolved in DMSO so that the final concentration of DMSO was <2%, and the reaction was initiated with Rho kinase variants. After incubation, the reaction was terminated by the addition of EDTA and the phosphorylated and non-phosphorylated peptides separated using a LABCHIP® 3000 Reader (Caliper Life Sciences). […] Compounds were tested in dose-response format, and the inhibition of kinase activity was calculated at each concentration of compound. The inhibition data were fit using a curve-fitting program to determine the IC50; i.e., the concentration of compound required to inhibit 50% of kinase activity.).
Sequence of Rho-associated protein kinase 1 (Q13464 2-1354 limits assumed, change not shown): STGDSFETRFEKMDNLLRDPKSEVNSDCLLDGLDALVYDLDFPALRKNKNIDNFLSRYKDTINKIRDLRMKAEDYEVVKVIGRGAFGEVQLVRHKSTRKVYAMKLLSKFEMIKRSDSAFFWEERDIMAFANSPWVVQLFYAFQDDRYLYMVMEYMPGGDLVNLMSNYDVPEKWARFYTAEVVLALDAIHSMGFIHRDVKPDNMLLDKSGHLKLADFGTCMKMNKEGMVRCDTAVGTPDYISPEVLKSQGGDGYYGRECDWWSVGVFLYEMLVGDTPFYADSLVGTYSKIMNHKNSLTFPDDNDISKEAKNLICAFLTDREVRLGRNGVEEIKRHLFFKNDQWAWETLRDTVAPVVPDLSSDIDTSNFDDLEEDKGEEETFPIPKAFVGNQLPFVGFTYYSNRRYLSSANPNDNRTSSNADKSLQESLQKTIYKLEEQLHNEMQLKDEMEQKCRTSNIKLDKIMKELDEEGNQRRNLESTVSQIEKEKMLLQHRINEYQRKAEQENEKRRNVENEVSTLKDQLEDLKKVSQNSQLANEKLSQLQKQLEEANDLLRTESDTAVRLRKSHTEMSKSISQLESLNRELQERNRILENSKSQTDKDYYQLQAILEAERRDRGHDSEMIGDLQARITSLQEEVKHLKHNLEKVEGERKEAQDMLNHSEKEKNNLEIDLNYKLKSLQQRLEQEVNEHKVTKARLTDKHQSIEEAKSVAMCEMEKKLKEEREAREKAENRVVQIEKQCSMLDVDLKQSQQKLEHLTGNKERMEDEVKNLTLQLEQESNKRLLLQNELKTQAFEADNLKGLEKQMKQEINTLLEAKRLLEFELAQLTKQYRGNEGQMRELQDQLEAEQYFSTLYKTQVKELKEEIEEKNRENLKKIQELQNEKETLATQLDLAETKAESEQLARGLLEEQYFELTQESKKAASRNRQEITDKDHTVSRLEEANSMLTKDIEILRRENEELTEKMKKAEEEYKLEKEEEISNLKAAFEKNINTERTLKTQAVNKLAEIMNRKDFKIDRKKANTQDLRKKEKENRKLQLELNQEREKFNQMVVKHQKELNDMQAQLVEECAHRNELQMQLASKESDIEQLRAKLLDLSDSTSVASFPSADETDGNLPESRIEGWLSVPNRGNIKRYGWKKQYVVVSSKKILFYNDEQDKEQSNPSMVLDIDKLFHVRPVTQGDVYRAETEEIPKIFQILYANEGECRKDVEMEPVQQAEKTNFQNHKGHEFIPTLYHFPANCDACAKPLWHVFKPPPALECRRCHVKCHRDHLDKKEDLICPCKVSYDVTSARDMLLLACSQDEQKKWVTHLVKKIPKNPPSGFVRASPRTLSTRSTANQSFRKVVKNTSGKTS

| SMILES | IC50 |
| --- | --- |
| O=C(Oc1ccc(-c2n[nH]c(=O)c3ccccc23)cc1)N1Cc2ccccc2C1 | in the range around 550 nM |

What follows are compounds tested against Rho-associated protein kinase 2 (Homo sapiens, UniProt O75116) (assay: as §1).
Sequence of Rho-associated protein kinase 2 (O75116 whole entry, looked up, change not shown): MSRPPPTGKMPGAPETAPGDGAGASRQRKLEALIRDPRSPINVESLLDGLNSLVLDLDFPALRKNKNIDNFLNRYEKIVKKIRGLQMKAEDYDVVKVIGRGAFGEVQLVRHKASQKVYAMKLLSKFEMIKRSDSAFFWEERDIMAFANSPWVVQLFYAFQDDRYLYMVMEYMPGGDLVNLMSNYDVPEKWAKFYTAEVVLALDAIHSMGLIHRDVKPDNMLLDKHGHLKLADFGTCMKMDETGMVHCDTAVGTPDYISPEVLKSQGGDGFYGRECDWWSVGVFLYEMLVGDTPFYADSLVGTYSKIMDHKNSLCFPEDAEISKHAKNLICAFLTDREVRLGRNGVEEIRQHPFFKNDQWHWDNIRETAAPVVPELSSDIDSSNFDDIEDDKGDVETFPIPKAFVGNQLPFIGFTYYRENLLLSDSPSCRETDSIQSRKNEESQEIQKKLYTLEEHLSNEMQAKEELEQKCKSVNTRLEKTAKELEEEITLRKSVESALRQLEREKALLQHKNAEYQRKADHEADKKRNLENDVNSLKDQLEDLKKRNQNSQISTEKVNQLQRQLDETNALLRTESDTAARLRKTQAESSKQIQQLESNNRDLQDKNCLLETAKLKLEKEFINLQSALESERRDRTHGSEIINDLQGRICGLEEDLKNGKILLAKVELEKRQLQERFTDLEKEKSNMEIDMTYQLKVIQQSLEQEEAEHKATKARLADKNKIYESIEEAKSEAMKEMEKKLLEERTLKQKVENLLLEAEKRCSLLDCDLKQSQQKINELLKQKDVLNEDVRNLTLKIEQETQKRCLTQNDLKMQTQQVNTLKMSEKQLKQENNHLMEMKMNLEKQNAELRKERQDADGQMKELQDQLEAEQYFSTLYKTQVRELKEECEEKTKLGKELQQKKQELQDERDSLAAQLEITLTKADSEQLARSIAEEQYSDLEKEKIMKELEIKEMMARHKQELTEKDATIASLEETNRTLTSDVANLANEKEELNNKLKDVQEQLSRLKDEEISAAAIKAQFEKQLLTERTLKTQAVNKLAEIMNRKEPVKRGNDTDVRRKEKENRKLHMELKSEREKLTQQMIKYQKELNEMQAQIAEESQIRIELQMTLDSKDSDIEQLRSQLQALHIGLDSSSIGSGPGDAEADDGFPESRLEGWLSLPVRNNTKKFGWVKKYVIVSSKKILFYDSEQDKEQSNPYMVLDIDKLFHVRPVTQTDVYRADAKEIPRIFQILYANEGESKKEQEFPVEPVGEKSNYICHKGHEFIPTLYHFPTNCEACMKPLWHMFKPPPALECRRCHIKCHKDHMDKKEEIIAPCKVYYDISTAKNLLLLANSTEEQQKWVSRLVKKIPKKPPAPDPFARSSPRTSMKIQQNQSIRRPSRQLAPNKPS

| SMILES | IC50 [nM] |
| --- | --- |
| O=C(Nc1ccc(-c2n[nH]c(=O)c3ccccc23)cc1)c1cnn(CC(F)(F)F)c1 | < 100 |
| O=C(Nc1ccc(-c2n[nH]c(=O)c3ccccc23)cc1)c1cnn(C2CCCC2)c1 | < 100 |
| CCc1c(C(=O)Nc2ccc(-c3n[nH]c(=O)c4ccccc34)cc2)nnn1-c1cccc(Cl)c1 | < 100 |
| O=c1[nH]nc(-c2ccc(Nc3nnc(-c4ccccc4)s3)cc2)c2ccccc12 | < 100 |
| CCCn1cc(C(=O)Nc2ccc(-c3n[nH]c(=O)c4ccccc34)cc2)cn1 | < 100 |
| O=C(Nc1ccc(-c2n[nH]c(=O)c3ccccc23)cc1)c1cnn2ccc(OCCO)cc12 | < 100 |
| O=C(Nc1ccc(-c2c[nH]c(=O)c3ccccc23)cc1)c1ccc(N2CCOCC2)cc1 | < 100 |
| O=C(Nc1ccc(-c2n[nH]c(=O)c3ccccc23)cc1)c1c[nH]c2ncc(F)cc12 | < 100 |
| O=C(Nc1ccc(-c2n[nH]c(=O)c3ccccc23)cc1)c1cc2ncccn2n1 | < 100 |
| O=C(Nc1ccc(-c2n[nH]c(=O)c3ccccc23)cc1)c1nn(CC2CCNCC2)c2ccccc12 | < 100 |
| O=C(Nc1ccc(-c2n[nH]c(=O)c3ccccc23)cc1)c1cnn(CC(F)(F)C(F)F)c1 | < 100 |
| O=C(Nc1ccc(-c2n[nH]c(=O)c3ccccc23)cc1)c1cnn(C2CCS(=O)(=O)C2)c1 (stereo not drawn) | < 100 |
| O=C(Nc1ccc(-c2n[nH]c(=O)c3ccccc23)cc1)c1cn[nH]c1 | < 100 |
| O=C(Nc1ccc(-c2n[nH]c(=O)c3ccccc23)cc1)c1cn2ccnc(Cl)c2n1 | < 100 |
| O=C(Nc1ccc(-c2n[nH]c(=O)c3ccccc23)c(CO)c1)c1nn(CCC2CCOCC2)c2ccccc12 | < 100 |
| O=C(Nc1ccc(-c2n[nH]c(=O)c3ccccc23)cc1)c1cnn(C2CCCCC2)c1 | < 100 |
| O=C(Nc1ccc(-c2n[nH]c(=O)c3ccccc23)c(Cl)c1)c1nn(CC2CNC2)c2ccccc12 | < 100 |
| CC(O)Cn1cc(C(=O)Nc2ccc(-c3n[nH]c(=O)c4ccccc34)cc2)cn1 (stereo not drawn) | < 100 |
| O=C(Nc1ccc(-c2n[nH]c(=O)c3ccccc23)cc1)c1cnn(CC2CC2)c1 | < 100 |
| O=C(Cc1ccc(-c2c[nH]c(=O)c3ccccc23)c(F)c1)N1Cc2ccccc2C1 | < 100 |
| O=C(Nc1ccc(-c2n[nH]c(=O)c3ccccc23)cc1)c1cnn(CC(O)C(F)(F)F)c1 (stereo not drawn) | < 100 |
| Cc1ccc2oc(Nc3ccc(-c4n[nH]c(=O)c5ccccc45)cc3)nc2c1 | < 100 |
